This note sets out measurements from ChEMBL document CHEMBL5046282, “Discovery of Brain-Penetrant Glucosylceramide Synthase Inhibitors with a Novel Pharmacophore” (J Med Chem, 2022).

Usually IC50 stands for the midpoint of a concentration-inhibition curve. Higher therefore signals weaker potency in that assay. Broadly, the efflux ratio is the permeability from basolateral to apical divided by that in the opposite direction, in the common usage. The term inhibition denotes the drop in the measured response relative to a control, in per cent. For orientation: clearance means the rate of elimination divided by the concentration. A low value points to a low capacity for elimination. For orientation: MRT means a mean duration of stay, worked out from the concentration-time curve. The Cmax is the highest concentration seen after dosing. What is called AUC is concentration integrated over time. A word on the fraction unbound: it is free concentration divided by total concentration. Low values mean little free substance, high ones much free substance. In general, bioavailability refers to the share of a dose that reaches the circulation, judged against a reference dose that is usually intravenous. The term EC50 denotes the concentration needed to bring the measured effect to its halfway point.

Calls of active or inactive are those of the source. The calls are words filed in the database; no cut-off is given here. Where only a bound is given, the exact number is not on record here.

The target in data set [1] is T1, Ceramide glucosyltransferase (Homo sapiens, UniProt Q16739).
T1 sequence (Q16739 whole entry): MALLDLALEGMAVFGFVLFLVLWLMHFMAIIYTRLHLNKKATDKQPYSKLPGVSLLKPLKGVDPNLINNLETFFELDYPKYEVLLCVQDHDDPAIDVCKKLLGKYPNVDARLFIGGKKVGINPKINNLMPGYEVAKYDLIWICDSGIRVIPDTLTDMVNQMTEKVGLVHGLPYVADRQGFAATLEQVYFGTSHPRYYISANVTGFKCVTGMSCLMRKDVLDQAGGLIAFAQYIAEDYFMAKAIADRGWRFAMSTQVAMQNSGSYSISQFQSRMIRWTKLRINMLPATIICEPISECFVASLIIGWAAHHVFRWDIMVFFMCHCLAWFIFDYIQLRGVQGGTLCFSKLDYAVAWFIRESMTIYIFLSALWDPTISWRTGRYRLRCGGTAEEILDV
Kind of data set: Inhibition of human GCS using C8-ceramide and UDP-glucose as substrate incubated for 1 hr by RapidFire mass spectrometry.

A short description of data set [2]: Intrinsic clearance in mouse liver microsomes at 1 uM in presence of NADPH generating system assessed per mg protein by LC-MS/MS analysis. The data set is classed as ADME, Microsome. The settings on record: read-out: CLH.
A short description of data set [3]: Efflux ratio of apparent permeability from basolateral to apical side over apical to basolateral side in dog MDCK-MDR1 cells at 1 uM measured after 1 hr by LC-MS/MS analysis. In kind it is ADME, cell-based, Canis lupus familiaris.
Data set [4] deals with T2, CYP1A2 (Homo sapiens, UniProt P05177).
T2 sequence (P05177 whole entry): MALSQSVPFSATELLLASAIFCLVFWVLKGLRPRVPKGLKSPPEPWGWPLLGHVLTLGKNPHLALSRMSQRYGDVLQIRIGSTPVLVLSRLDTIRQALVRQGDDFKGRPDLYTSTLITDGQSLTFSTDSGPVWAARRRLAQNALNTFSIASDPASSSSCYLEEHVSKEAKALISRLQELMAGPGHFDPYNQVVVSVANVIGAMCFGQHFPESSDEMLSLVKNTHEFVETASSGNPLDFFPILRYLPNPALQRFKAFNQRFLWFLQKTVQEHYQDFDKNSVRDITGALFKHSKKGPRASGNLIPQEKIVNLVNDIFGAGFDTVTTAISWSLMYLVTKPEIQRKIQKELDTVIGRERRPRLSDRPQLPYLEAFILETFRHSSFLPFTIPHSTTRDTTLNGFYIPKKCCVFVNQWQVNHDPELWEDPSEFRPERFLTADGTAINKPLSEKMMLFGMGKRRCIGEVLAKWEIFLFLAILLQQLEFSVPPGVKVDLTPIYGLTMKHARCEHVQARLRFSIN
Kind of data set: Inhibition of CYP1A2 in human liver microsomes using tacrine as substrate at 10 uM in presence of NADPH generating system incubated for 10 mins. In kind it is ADME. As to conditions: probe tacrine. On the technique in general: Liver microsomes are vesicles of endoplasmic reticulum, rich in cytochrome P450 enzymes.

The target of data set [5] is CYP2C9 (Homo sapiens, UniProt P11712). Kind of data set: Inhibition of CYP2C9 in human liver microsomes using tolbutamide as substrate at 10 uM in presence of NADPH generating system incubated for 10 mins. In kind it is ADME. The settings on record: probe tolbutamide.
Data set [6] addresses CYP2D6 (Homo sapiens, UniProt P10635). Kind of data set: Inhibition of CYP2D6 in human liver microsomes using dextromethorphan as substrate at 10 uM in presence of NADPH generating system incubated for 10 mins. In kind it is ADME. As to conditions: probe dextromethorphan.
The target of data set [7] is CYP3A4 (Homo sapiens, UniProt P08684). Kind of data set: Inhibition of CYP3A4 in human liver microsomes using midazolam as substrate at 10 uM in presence of NADPH generating system incubated for 10 mins. In kind it is ADME. As to conditions: probe midazolam.
The nature of data set [8]: Plasma clearance in non-fasted ICR mouse at 0.5 mg/kg, iv by LC-MS/MS analysis. The data set is classed as ADME, organism-based.
A short description of data set [9]: Volume of distribution at steady state in non-fasted ICR mouse at 0.5 mg/kg, iv by LC-MS/MS analysis. The data set is classed as ADME, organism-based. As to conditions: in vivo, read-out: Vdss.
Data set [10] is described as follows: MRT in non-fasted ICR mouse at 0.5 mg/kg, iv by LC-MS/MS analysis. The data set is classed as ADME, organism-based. As to conditions: in vivo.
A short description of data set [11]: Cmax in non-fasted ICR mouse at 5 mg/kg, po by LC-MS/MS analysis. The data set is classed as ADME, organism-based. Further details: route oral, dose 5 mg/kg. As to conditions: in vivo.
The nature of data set [12]: AUC in non-fasted ICR mouse at 5 mg/kg, po by LC-MS/MS analysis. The data set is classed as ADME, organism-based. Further details: dose 5 mg/kg. The settings on record: in vivo.
Data set [13] can be described thus: Fraction unbound in plasma of non-fasted ICR mouse at 30 mg/kg, po measured after 1 hr by LC-MS/MS analysis. In kind it is ADME, organism-based.
The nature of data set [14]: Unbound drug concentration in brain of non-fasted ICR mouse at 30 mg/kg, po measured after 1 hr by LC-MS/MS analysis. As to conditions: in vivo. In kind it is ADME, organism-based.
Data set [15] deals with hERG (Homo sapiens, UniProt Q12809). Kind of data set: Inhibition of hERG expressed in CHO-K1 cells at 30 uM by automated whole cell patch clamp assay. In kind it is toxicity, cell-based. The settings on record: CHO-K1 cells expressing hERG. A general note: The hERG channel carries a current that helps repolarise heart muscle cells.
The target of data set [16] is Nav1.5 (Homo sapiens, UniProt Q14524). Kind of data set: Inhibition of human Nav1.5 at 30 uM by automated whole cell patch clamp assay. The data set is classed as toxicity. On the technique in general: Patch clamp records ionic current or voltage across a cell membrane.
Data set [17] concerns the target Sodium-dependent serotonin transporter (Homo sapiens, UniProt P31645). Kind of data set: Inhibition of human SERT. In kind it is toxicity.
The target in data set [18] is T3, Ceramide glucosyltransferase (Homo sapiens) (UniProt Q16739).
T3 sequence (whole entry): T1 sequence (Q16739 whole entry)
Kind of data set: Non-competitive inhibition of GCS (unknown origin) using 1 to 70 uM C8-ceramide and 0.1 to 200 uM UDP-glucose as substrate incubated for 1 hr by RapidFire mass spectrometry.

Data set [19] in a line: Oral bioavailability in non-fasted ICR mouse at 5 mg/kg by LC-MS/MS analysis. The data set is classed as ADME, organism-based. As to conditions: in vivo.
A short description of data set [20]: Selectivity index, ratio of IC50 for mouse GCS to IC50 for human GCS.
Data set [21] deals with T4, Lysosomal acid glucosylceramidase (Homo sapiens, UniProt P04062).
T4 sequence (P04062 whole entry): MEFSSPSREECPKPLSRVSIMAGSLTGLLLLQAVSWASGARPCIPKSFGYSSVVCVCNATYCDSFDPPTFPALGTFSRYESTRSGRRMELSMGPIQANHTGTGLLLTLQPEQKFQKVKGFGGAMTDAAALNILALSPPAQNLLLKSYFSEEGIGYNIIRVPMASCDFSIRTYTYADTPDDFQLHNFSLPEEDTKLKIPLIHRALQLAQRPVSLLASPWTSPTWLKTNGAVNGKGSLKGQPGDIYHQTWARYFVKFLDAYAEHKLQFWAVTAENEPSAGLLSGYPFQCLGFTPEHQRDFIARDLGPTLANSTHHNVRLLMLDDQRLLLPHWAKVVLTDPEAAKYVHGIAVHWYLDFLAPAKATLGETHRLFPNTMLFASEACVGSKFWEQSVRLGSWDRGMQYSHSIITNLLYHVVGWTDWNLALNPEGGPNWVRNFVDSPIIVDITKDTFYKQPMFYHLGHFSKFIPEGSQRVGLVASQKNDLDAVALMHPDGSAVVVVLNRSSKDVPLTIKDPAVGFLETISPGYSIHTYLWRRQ
Kind of data set: Inhibition of human recombinant GCase using 4-methylumbelliferyl beta-D-glucopyranoside as substrate incubated for 20 mins by fluorescence-based analysis.

A short description of data set [22]: Cardiotoxicity in human iPSC-derived cardiomyocytes assessed as minimum effective concentration required for intracellular calcium transients-mediated proarrhythmic activity by Fluo-4 dye based fluorescence analysis. In kind it is toxicity. The settings on record: cardiac muscle cell.

Sequence of Nav1.5 (Q14524 whole entry): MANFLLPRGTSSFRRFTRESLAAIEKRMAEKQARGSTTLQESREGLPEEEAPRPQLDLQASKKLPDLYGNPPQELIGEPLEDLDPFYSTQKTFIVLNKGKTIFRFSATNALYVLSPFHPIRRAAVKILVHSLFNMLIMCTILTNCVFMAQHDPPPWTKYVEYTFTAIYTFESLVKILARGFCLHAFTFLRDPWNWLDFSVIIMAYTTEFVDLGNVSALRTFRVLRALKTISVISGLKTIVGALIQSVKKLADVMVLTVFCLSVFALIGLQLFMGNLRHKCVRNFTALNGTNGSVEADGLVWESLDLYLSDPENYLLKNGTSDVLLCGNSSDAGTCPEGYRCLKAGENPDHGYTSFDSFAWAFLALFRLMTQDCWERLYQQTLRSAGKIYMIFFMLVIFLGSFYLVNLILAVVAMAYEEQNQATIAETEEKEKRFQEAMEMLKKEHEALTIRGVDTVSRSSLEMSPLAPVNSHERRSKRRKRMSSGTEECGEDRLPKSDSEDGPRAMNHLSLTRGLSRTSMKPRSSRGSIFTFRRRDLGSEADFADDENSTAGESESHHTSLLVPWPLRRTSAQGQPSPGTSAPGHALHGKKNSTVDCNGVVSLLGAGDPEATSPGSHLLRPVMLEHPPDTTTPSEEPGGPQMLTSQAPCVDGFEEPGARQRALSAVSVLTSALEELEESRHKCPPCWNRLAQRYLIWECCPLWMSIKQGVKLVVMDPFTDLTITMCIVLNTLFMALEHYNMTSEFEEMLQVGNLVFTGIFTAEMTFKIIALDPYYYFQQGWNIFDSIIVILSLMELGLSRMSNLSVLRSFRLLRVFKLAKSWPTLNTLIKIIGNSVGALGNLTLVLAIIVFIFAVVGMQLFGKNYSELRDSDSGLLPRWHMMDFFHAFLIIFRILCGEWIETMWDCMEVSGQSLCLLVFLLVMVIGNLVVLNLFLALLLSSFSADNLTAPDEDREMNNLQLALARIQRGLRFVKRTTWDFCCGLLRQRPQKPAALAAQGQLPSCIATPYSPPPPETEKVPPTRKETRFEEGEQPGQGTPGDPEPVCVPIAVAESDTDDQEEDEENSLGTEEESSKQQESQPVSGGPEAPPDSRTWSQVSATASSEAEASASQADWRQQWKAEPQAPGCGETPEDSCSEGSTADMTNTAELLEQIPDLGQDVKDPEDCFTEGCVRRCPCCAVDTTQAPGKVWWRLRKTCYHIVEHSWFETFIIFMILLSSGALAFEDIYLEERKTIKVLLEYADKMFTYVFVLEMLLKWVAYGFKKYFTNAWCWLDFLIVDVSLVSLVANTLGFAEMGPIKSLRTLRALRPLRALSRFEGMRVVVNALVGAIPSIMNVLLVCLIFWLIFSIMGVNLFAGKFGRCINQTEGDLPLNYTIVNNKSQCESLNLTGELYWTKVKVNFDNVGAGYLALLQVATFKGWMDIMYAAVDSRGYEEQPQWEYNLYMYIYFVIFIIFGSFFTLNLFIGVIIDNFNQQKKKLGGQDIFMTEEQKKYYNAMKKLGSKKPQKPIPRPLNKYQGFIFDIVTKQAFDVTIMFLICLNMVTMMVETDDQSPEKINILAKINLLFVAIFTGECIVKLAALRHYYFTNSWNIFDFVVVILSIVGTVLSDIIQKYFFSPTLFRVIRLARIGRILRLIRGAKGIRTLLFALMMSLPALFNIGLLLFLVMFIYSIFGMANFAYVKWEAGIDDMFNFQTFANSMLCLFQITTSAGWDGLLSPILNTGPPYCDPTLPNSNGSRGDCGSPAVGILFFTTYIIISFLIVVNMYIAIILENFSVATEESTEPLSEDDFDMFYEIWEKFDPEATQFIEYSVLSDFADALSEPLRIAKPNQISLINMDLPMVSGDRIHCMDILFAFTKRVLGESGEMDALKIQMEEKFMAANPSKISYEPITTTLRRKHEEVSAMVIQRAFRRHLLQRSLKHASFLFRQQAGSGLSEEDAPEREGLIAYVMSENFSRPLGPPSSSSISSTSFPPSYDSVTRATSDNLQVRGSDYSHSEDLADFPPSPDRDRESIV
Sequence of Sodium-dependent serotonin transporter (P31645 whole entry): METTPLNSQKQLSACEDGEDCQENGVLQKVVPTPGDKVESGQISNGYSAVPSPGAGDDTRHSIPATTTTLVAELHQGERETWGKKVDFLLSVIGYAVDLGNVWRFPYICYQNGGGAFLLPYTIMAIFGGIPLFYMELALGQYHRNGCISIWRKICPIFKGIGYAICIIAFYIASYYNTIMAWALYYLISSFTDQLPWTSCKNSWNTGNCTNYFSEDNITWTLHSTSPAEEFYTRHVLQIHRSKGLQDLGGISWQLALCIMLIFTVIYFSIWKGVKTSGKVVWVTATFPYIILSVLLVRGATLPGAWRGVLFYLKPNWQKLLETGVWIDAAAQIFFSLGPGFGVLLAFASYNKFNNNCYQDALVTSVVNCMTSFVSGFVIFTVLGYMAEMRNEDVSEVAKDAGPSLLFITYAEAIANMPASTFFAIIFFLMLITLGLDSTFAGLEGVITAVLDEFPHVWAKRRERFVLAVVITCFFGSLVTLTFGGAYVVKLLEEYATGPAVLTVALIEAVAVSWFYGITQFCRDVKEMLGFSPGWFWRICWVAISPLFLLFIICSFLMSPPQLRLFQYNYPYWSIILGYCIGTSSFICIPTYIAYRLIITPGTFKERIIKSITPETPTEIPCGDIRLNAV
Sequence of CYP2D6 (P10635 whole entry): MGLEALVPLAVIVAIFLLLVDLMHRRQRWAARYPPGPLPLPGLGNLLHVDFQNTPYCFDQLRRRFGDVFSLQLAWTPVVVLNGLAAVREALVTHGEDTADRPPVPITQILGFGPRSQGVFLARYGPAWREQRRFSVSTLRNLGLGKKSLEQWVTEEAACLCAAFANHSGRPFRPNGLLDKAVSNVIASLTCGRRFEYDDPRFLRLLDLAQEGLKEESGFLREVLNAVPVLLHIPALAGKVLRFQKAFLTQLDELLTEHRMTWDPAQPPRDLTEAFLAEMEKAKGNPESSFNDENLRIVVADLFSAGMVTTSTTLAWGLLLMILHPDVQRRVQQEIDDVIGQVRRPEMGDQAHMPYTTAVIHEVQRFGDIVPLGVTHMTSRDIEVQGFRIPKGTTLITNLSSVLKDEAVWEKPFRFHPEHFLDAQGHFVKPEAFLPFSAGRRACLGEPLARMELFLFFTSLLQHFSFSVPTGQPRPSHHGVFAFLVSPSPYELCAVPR
Sequence of CYP3A4 (P08684 whole entry): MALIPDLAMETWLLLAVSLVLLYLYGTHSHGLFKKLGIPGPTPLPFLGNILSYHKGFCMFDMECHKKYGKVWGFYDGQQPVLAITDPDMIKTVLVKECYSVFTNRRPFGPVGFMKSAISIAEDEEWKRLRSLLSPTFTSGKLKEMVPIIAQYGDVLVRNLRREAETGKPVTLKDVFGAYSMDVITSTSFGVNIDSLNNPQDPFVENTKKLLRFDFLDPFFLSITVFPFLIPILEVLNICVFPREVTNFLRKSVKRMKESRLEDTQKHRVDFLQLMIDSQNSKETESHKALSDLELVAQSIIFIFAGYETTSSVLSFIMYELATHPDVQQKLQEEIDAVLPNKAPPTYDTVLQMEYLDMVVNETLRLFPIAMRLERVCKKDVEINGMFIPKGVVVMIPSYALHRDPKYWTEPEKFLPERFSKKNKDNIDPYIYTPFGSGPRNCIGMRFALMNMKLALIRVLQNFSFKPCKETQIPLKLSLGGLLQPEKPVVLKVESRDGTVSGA
Sequence of CYP2C9 (P11712 whole entry): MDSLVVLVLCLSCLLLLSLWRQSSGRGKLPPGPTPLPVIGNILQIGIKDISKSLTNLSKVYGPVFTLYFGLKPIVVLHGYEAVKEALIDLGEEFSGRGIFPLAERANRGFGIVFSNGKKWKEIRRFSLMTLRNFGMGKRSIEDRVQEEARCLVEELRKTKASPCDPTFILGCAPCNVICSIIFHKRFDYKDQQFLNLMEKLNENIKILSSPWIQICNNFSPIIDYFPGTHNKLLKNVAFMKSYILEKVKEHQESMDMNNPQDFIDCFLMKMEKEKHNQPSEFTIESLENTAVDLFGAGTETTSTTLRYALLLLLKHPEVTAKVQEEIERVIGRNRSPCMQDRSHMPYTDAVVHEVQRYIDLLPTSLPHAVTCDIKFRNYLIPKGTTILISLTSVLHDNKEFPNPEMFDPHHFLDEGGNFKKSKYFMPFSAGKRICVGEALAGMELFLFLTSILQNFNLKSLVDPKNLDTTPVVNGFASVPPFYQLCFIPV

As for `CC(C)(O)c1ccc(NC(=O)c2ccnn(-c3ccccc3OCC(F)(F)F)c2=O)cc1`, the IC50 in data set [1] is 0.015 µM; in data set [17] it was above 10 µM. For the same molecule, the microsomal CLint at 1 µM in data set [2] is 1 µL/min/mg. Besides, the efflux ratio at 1 h, 1 µM in data set [3] stood at 8.8. The inhibition at 10 min, 10 µM was 9.3% in [4], 24.9% in data set [5], 15.6% in data set [6] and -4.8% in data set [7]. In data set [8], this molecule had a clearance of 33.7 mL/min/kg. Moreover, the Vd in data set [9] stood at 1.97 L/kg. Also, the MRT in data set [10] turned out to be 1.03 h. Besides, the Cmax in [11] was found to be 416 ng/mL. The same molecule registered an AUC in [12] of 829 ng·h/mL. Besides, in data set [13], the fraction unbound at 1 h was 0.23. Moreover, in data set [14], the “Drug uptake(free)” value was found to be 0.21 µM. Further, the inhibition at 30 µM is 8% in data set [15] and 20% in [16]. The inhibition entry in data set [18] was “Active”. Moreover, the bioavailability in data set [19] was 31%. Also, in data set [20], the Ratio IC50 stood at 12.7. Also, the EC50 in data set [21] is above 300 µM. Besides, the MEC in data set [22] is above 10 µM.
